T1: endothelin converting enzyme (ECE) (Homo sapiens, UniProt P42892)
T1 construct: ECE was partially purified from EA.hy926 grown in 150 roller; endogenous in cells; host or cells: EA.hy926 (human umbilical vein endothelial cells fused with A549); detergent-solubilised membranes, RCA-I lectin eluate
T1 sequence (P42892 whole entry, looked up): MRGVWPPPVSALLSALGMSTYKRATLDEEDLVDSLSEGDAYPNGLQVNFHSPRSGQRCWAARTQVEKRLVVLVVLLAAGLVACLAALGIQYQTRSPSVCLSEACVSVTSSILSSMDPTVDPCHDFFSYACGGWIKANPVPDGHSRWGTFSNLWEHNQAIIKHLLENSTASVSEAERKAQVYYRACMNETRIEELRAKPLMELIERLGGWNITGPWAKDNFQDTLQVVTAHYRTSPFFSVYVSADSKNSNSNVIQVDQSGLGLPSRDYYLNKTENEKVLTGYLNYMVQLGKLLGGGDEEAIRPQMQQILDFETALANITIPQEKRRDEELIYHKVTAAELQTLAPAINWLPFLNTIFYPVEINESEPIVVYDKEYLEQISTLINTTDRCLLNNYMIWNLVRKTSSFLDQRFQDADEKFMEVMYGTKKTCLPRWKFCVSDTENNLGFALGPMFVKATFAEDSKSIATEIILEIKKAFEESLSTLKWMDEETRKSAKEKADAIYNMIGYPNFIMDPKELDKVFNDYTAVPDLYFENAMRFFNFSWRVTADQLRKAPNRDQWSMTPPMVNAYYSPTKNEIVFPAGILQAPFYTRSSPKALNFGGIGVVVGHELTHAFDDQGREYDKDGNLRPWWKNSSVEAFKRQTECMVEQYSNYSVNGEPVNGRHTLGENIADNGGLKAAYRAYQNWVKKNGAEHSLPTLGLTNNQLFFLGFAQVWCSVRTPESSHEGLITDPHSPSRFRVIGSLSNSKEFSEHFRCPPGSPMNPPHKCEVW

B1: soybean trypsin inhibitor: soybean trypsin inhibitor (protein, UniProt P01070 25-205, looked up)
Trypsin inhibitor A: DFVLDNEGNPLENGGTYYILSDITAFGGIRAAPTGNERCPLTVVQSRNELDKGIGTIISSPYRIRFIAEGHPLSLKFDSFAVIMLCVGIPTEWSVVEDLPEGPAVKIGENKDAMDGWFRLERVSDDEFNNYKLVFCPQQAEDDKCGDIGISIDHDDGTRRLVVSKNKPLVVQFQKLDKESL

Counter-ions that a name gives are not always drawn. Non-standard residues stand in square brackets, D forms with d. Residues, ends and D or L forms follow the SMILES beside them. *: point of attachment. Sta = CC(C)C[C@H](N)[C@@H](O)CC(=O)O; Isovaleryl = CC(C)CC(=O)*

For orientation: IC50 means the point on the concentration scale where inhibition reaches its midpoint.

The test system of one experiment is neutral endopeptidase 24.11 (NEP 24.11). As to the kind of experiment: NEP 24.11 inhibition under ECE assay conditions. Type of experiment: biochemical, human. As to conditions: 100 μM thiorphan or 100 nM phosphoramidon. The source says: The cell line, EA.hy926, contains neutral endopeptidase 24.11 (NEP 24.11) which also cleaves big ET-1 to ET-1 and c-terminal fragment (manuscript submitted). […] All the data were obtained in the linear range of time-course curves.
With `O=C(O)CNC(=O)C(CS)Cc1ccccc1` (stereo not drawn) [thiorphan], the “NEP 24.11 inhibition” value is given as “completely inhibited”.

A further experiment concerns the target T2, endothelin converting enzyme (ECE) (Homo sapiens, UniProt P42892).
T2 construct: ECE was partially purified from EA.hy926 grown in 150 roller; endogenous in cells; host or cells: EA.hy926 (human umbilical vein endothelial cells fused with A549); detergent-solubilised membranes, RCA-I lectin eluate
As to the kind of experiment: ECE assay (partially purified ECE from EA.hy926, ET-1 production by RIA).
Conditions: not given
Type of experiment: biochemical.
Regarding `O=C(O)CN(CCN(CC(=O)O)CC(=O)O)CC(=O)O` [EDTA], the “inhibition of the enzyme (in words)” value is recorded as “inhibited”.

The same experiment, now with this note: 10 μM big ET-1, pH 7.0, 1.5 hours at 37° C., 3% DMSO; read-out: IC50 (Table III, Biological Activity of Compounds of the Present Invention).
With `CCN1CCCC(Nc2nc(C(F)(F)F)nc3ccc(I)cc23)C1` (stereo not drawn) [Example 17, (1-Ethyl-piperidin-3-yl)-(6-iodo-2-trifluoromethyl-quinazolin-4-yl)-amine], the IC50 amounted to 2.3 ± 0.3 µM.
The same measure, in the same setting: the value for `CC(C)N(CCNc1nc(C(Cl)(Cl)Cl)nc2cc(Cl)ccc12)C(C)C` [Example 13, N-(7-Chloro-2-trichloromethyl-quinazolin-4-yl)-N',N'-diisopropyl-ethane-1,2-diamine] was 66.6 ± 11.8 µM; that for `CN(C)CCNc1nc(C(Cl)(Cl)Cl)nc2ccc(I)cc12` [Example 8, N-(6-Iodo-2-trichloromethyl-quinazolin-4-yl)-N^1,N^1-dimethyl-ethane-1,2-diamine] was 11.1 ± 2.7 µM; that for `CCN1CCCC1CNc1nc(C(Cl)(Cl)Cl)nc2ccc(I)cc12` (stereo not drawn) [Example 11, (1-Ethyl-pyrrolidin-2-yl-methyl)-(6-iodo-2-trichloromethyl-quinazolin-4-yl)-amine] was 12.4 ± 1 µM.
Still for that read-out and setting: the figure for `CN(C)CC(CN(C)C)Nc1nc(C(Cl)(Cl)Cl)nc2ccc(I)cc12` [Example 16, N'-(6-Iodo-2-trichloromethyl-quinazolin-4-yl)-N,N,N",N"-tetramethyl-propane-1,2,3-triamine monohydrochloride] is 8.4 ± 1.4 µM; for `ClC(Cl)(Cl)c1nc(NC2CN3CCC2CC3)c2cc(I)ccc2n1` (stereo not drawn) [Example 12, (1 -Aza-bicyclo[2,2,2,]oct-3-yl)-(6-iodo-2-trichloromethyl-quinazolin-4-yl)-amine] it is 11.1 ± 1.7 µM; for `O=C(O)CN1CCCC(Nc2nc(C(Cl)(Cl)Cl)nc3ccc(I)cc23)C1` (stereo not drawn) [Example 14, [3-(6-Iodo-2-trichloromethyl-quinazolin-4-yl-amino)-piperidin-1-yl]-acetic acid potassium salt] it is 75.5 ± 11.6 µM.
On the same count and under the same terms, the figure for `NCCNc1nc(C(Cl)(Cl)Cl)nc2ccc(I)cc12` [Example 6, N-(6-Iodo-2-trichloromethyl-quinazolin-4-yl)-ethane-1,2-diamine hydrochloride] is 29.6 ± 6 µM; for `CCN1CCCC(Nc2nc(C(Cl)(Cl)Cl)nc3ccc(I)cc23)C1` (stereo not drawn) [Example 1, (1-Ethyl-piperidin-3-yl)-(6-iodo-2-trichloromethyl-quinazolin-4-yl)-amine, Monohydrochloride] it is 4.2 ± 0.5 µM.
For the molecule `ClC(Cl)(Cl)c1nc(NCCN2CCOCC2)c2cc(I)ccc2n1` [Example 10, (6-Iodo-2-trichloromethyl-quinazolin-4-yl)-(2-morpholin-4-yl-ethyl)-amine], the IC50 worked out at 25.4 ± 4.2 µM.
As to `CCN1CCCC(Nc2nc(C(Cl)(Cl)Cl)nc3ccc(Cl)cc23)C1` (stereo not drawn) [Example 3, (1-Ethyl-piperidin-3-yl)-(6-chloro-2-trichloromethyl-quinazolin-4-yl)-amine], the IC50 amounted to 14.1 ± 1.5 µM.
On the same count and under the same terms, the figure for `CCN1CCCC(Nc2nc(-c3ccccc3)nc3ccc(I)cc23)C1` (stereo not drawn) [Example 2, (1-Ethyl-piperidin-3-yl)-(6-iodo-2-phenyl-quinazolin-4-yl)-amine] is 9.2 ± 0.8 µM.
On to `CCN1CCCC(Nc2nc(C(Cl)(Cl)Cl)nc3ccc([N+](=O)[O-])cc23)C1` (stereo not drawn) [Example 4, (1-Ethyl-piperidin-3-yl)-(6-nitro-2-trichloromethyl-quinazolin-4-yl)-amine], for which the IC50 is 29.1 ± 5.4 µM.
Take `CNCCNc1nc(C(Cl)(Cl)Cl)nc2ccc(I)cc12` [Example 7, N-(6-Iodo-2-trichloromethyl-quinazolin-4-yl)-N^1-methyl-ethane-1,2-diamine]: the IC50 stood at 22.1 ± 4.8 µM.
Still for that read-out and setting: the figure for `ClC(Cl)(Cl)c1nc(NCCN2CCCCC2)c2cc(I)ccc2n1` [Example 9] is 3.7 ± 1.6 µM; for `CCN1CCCC(Nc2nc(C(C)(C)C)nc3ccc(I)cc23)C1` (stereo not drawn) [Example 5, (2-tert-Butyl-6-iodo-quinazolin-4-yl)-(1-ethyl-piperidin-3-yl)-amine] it is 17.6 ± 1.7 µM.

The experiment is the same for the next values; noted with them: 100 μM thiorphan or 100 nM phosphoramidon.
As to `O=C(O)CNC(=O)C(CS)Cc1ccccc1` (stereo not drawn) [thiorphan], the “effect on ECE activity at NEP-blocking concentration” value is listed as “without affecting the ECE activity”.

Still in this experiment, the particulars now being: partially purified ECE from EA.hy926.
With `c1cnc2c(c1)ccc1cccnc12` [1,10-phenanthroline], the “inhibition of the enzyme (in words)” value is recorded as “inhibited”.
For `O=C(O)CNC(=O)C(CS)Cc1ccccc1` (stereo not drawn) [thiorphan], the “inhibition of the enzyme (in words)” value is “not inhibited”.
The same measure, in the same setting: the entry for `O=C(O)CN(CCOCCOCCN(CC(=O)O)CC(=O)O)CC(=O)O` [EGTA] is “inhibited”.
Still for that read-out and setting: the entry for `CC(C)C[C@H](NC(=O)[C@H]1O[C@@H]1C(=O)O)C(=O)NCCCCN=C(N)N` [Example E-64] is “not inhibited”; for `C[C@H](N[C@@H](CCc1ccccc1)C(=O)O)C(=O)N1CCC[C@H]1C(=O)O` [enalaprilat] it is “not inhibited”; for `CC(=O)N[C@@H](CC(C)C)C(=O)N[C@@H](CC(C)C)C(=O)N[C@H](C=O)CCCNC(=N)N` [leupeptin] it is “not inhibited”.
Still for that read-out and setting: the value for `C[C@H](CS)C(=O)N1CCC[C@H]1C(=O)O` [captopril] was “not inhibited”.
In the case of `CC(C)C[C@H](NC(=O)[C@@H](O)[C@H](N)Cc1ccccc1)C(=O)O` [bestatin], the “inhibition of the enzyme (in words)” value is “not inhibited”.
In the case of `O=S(=O)(F)Cc1ccccc1` [phenylmethlysulfonyl fluoride], the “inhibition of the enzyme (in words)” value is given as “not inhibited”.
The same measure, in the same setting: the entry for `CC(C)CC(=O)N[C@H](C(=O)N[C@H](C(=O)N[C@@H](CC(C)C)[C@@H](O)CC(=O)N[C@@H](C)C(=O)N[C@@H](CC(C)C)[C@@H](O)CC(=O)O)C(C)C)C(C)C` [pepstatin A] (Isovaleryl-VV[Sta]A[Sta]-OH) is “not inhibited”.

The target of the next experiment is T1, endothelin converting enzyme (ECE). Described as above. As to conditions: partially purified ECE from EA.hy926. Type of experiment: biochemical.
On to B1, for which the “inhibition of the enzyme (in words)” value is “not inhibited”.

In a further experiment the test system is ET-1 production in cultured bovine aortic endothelial cells.
Assay: not given
To be noted: intracellular accumulation of pepstatin; cited from earlier work.
`CC(C)CC(=O)N[C@H](C(=O)N[C@H](C(=O)N[C@@H](CC(C)C)[C@@H](O)CC(=O)N[C@@H](C)C(=O)N[C@@H](CC(C)C)[C@@H](O)CC(=O)O)C(C)C)C(C)C` [pepstatin] (Isovaleryl-VV[Sta]A[Sta]-OH): the “inhibition of ET-1 production” value was “did not inhibit ET-1 production”.

A further experiment deals with T2, endothelin converting enzyme (ECE). As to the kind of experiment: Cell-based assay (ET-1 level in medium of EA.hy926 cells by RIA). As to conditions: read-out: IC50 (Table IV, cell-based assay). As to the method:
A permanent human cell line (EA.hy926), derived by fusing human umbilical vein endothelial cells with the permanent human cell line A549 (derived from a human lung carcinoma), was cultured as described, except that the medium also contained HAT supplements (100 μM hypoxanthine, 0.4 μM aminopterin, 16 μM thymidine). Edgell, C.-J. S., McDonald, C. C., and Graham, J. B. (1983) Proc. Natl. Acad. Sci. USA 80, 3734-3737. Cells from passages 40 to 50 were used. Subcultures were prepared by treating confluent cells with trypsin (0.5%) and seeded either onto 24 well plates for a cell-based assay or onto roller bottles for a partial purification of the enzyme.
ET-1 was measured by radioimmunoassay (RIA) as described previously with minor modifications. Ahn, K., Beningo, K., Olds, G., and Hupe, D. (1992) Proc. Nat. Acad. Sci. USA, 89, 8606-8610. Briefly, the RIA mixture (250 μl) contained the antibody against ET-1, an ET-1 sample, and [^125 I] ET-1 (15000 cpm) in buffer D. For the analysis of ET-1 from cell based assays, the final 6% bovine serum albumin was added. […] The amount of immunoreactive (ir) ET-1 was measured by counting the supernatant and determined from the standard curve. […]
EAhy926 cells (0.2-4×10^4) were seeded into 24-plates and cultures as described above. […] The ET-1 level from these samples were measured by RIA previously described. […]
On to `CCN1CCCC(Nc2nc(C(Cl)(Cl)Cl)nc3ccc(I)cc23)C1` (stereo not drawn) [Example 1, (1-Ethyl-piperidin-3-yl)-(6-iodo-2-trichloromethyl-quinazolin-4-yl)-amine, Monohydrochloride], for which the IC50 was 6.6 ± 1.5 µM.
For `CCN1CCCC(Nc2nc(C(Cl)(Cl)Cl)nc3ccc(Cl)cc23)C1` (stereo not drawn) [Example 3, (1-Ethyl-piperidin-3-yl)-(6-chloro-2-trichloromethyl-quinazolin-4-yl)-amine], the IC50 is 14.4 ± 1.1 µM.

Source of the values: patent US5773444A, “Quinazolines as inhibitors of endothelin converting enzyme” (Warner-Lambert Company, priority 1997, dated 1998).
